Test: Disk Retention Assay (DRA) of CPC bioavailability in mouthrinse formulations
Format: in vitro ADME
Conditions: mouthrinse formulation
Excerpt: In evaluating bioavailability and biological activity of quaternary ammonium antimicrobials in mouthwash formulations, an in vitro Disk Retention Assay (DRA) can be used to estimate drug bioavailability as well as an ex vivo Plaque Glycolysis and Regrowth Model (PGRM) to assess biological activity (S. J. Hunter-Rinderle, et al., “Evaluation of Cetylpyridinium Chloride-Containing Mouthwashes Using In Vitro Disk Retention and Ex Vivo Plaque Glycolysis Methods,” J. Clin. Den., 1997, 8:107-113). These assays are recommended for use in the proposed OTC monograph (Federal Register Vol. 68, No. 103 Part 356, “Oral Health Care Drug Products For Over-The-Counter Human Use; Antigingivitis/Antiplaque Drug Products; Establishment of a Monograph: Proposed Rules”).
This method is designed as a performance assay to analyze mouthrinse formulations containing from about 0.03% to about 0.1% CPC to quantitatively determine the “free” (“unbound”) or “bioavailable” level of CPC needed for clinical efficacy. The DRA assay measures the amount of CPC “binding” to standardized cellulose filter disks during filtration of an undiluted mouthrinse sample. The “bioavailable” CPC binds to the hydroxyl groups on the cellulose fiber during filtration while CPC, which has been rendered “non-bioavailable” (or “bound”)” through interactions with mouthrinse components, simply passes through the filter paper, i.e., the positive charge on the compound is no longer available for binding to the negatively charged cellulose disks. In this way, the DRA test provides an estimate of the amount of CPC available for binding to bacteria and mucosal surfaces during use of the mouthrinse. DRA measurements of CPC availability have been positively correlated to the results of in vitro microbiological assays and in vivo germ kill tests. Historically, cellulose fibers have been used in other applications to similarly monitor biological activity of drug actives (“Dairy Products” in Official Methods of Analysis of the Association of […] Analytical Chemists. 13th ed., 1980, Chapter 16:256).
“Bioavailable” CPC is the amount of CPC bound to or adsorbed to cellulose disks. This is determined by measuring the differences in CPC concentration in the mouthrinse before and after exposure to standardized cellulose disks. The method has been validated and shown to perform with acceptable accuracy, precision, and selectivity. A more detailed description of the test is provided below.
For example, a formulation comprising 0.05% CPC at 72% bioavailability would provide 360 ppm CPC. […] Determination of CPC bioavailability in a finished product is important to product performance as it readily defines the amount (concentration) of active available for deposition at the site of action. Because the positively charged (cationic) hydrophilic region is critical to antimicrobial activity, any formulation component that diminishes the activity of this cationic group or that competes with the group may inactivate the product.
Desirably, a formulation containing 0.05% CPC would have at least about 65% bioavailability to deliver at least about 324 ppm bioavailable CPC. A formulation containing a lower level of CPC such as 0.04% would need to have at least about 81% bioavailability to deliver the minimum required level of bioavailable CPC for efficacy.

CCCCCCCCCCCCCCCC[n+]1ccccc1 [CPC, cetylpyridinium chloride]
% bioavailable CPC (0.0 % Poloxamer): 94.24%
% bioavailable CPC (0.05 % Poloxamer): 84.42%
% bioavailable CPC (0.1 % Poloxamer): 61.14%
% bioavailable CPC (0.15 % Poloxamer): 57.49%
% bioavailable CPC (0.2 % Poloxamer): 52.96%
% bioavailable CPC (0.25 % Poloxamer): 53.14%
% bioavailable CPC (0.5 % Poloxamer): 42.63%
% bioavailable CPC (0.75 % Poloxamer): 38.4%
% bioavailable CPC (1.00 % Poloxamer): 35.09%
bioavailability of CPC (level of 0.1% surfactant (Poloxamer) or higher): unacceptable bioavailability

From patent publication US9241885B2, “Oral care compositions comprising increased bioavailable levels of quaternary ammonium antimicrobials” (THE PROCTER & GAMBLE COMPANY, priority 2004, dated 2016)
